Tests used:
[1] = test system: thermal hyperalgesia after chronic constriction injury (CCI) to the sciatic nerve; assay: Repeated administration, thermal hyperalgesia (Hargreaves plantar test) in CCI rats; type: in vivo, rat; conditions: for difference between the pain relieving values before and after treatment, Thermal Hyperalgesia: day 14 minus day 7
Method: (§1) Painful neuropathy was induced in male Wistar rats weighing 200-220 g (Harlan, Italy). Animals were anaesthetized with sodium pentobarbital (60 mg kg^−1 i.p.) and submitted to a surgical procedure to induce neuropathic pain according to Bennet & Xie (1988).
(§2) This procedure was a chronic constriction injury (CCI) to the sciatic nerve, this was achieved by exposing the common sciatic nerve at the level of the mid thigh and, proximal to the sciatic nerves trifurcation, four ligatures were loosely tied around it with about 1 mm spacing so that the epineural circulation was preserved.
(§3) Sham animals (sciatic exposure without ligation) were used as controls.
(§4) The compounds tested were a cannabinoid-containing plant extract which contained a ratio of CBD:THC of approximately 24:1. From Table 1 this could also be described as a “CBD-containing plant extract”. The extract comprised CBD at a concentration of 10 mg/kg and THC at a concentration of 0.42 mg/kg. Pure cannabinoids CBD (at a concentration of 10 mg/kg) and THC (at a concentration of 0.42 mg/kg) were also used as test articles for comparison to the cannabinoid-containing plant extract.
(§5) The test compounds were dissolved in a 1:1:18 mixture of ethanol, cremophor and saline.
(§6) In the repeated administration study the rats received the test compounds or the vehicle orally once a day for seven days, starting from the seventh day after the surgical procedure.
(§7) The animals pain response was monitored (i) before surgery, (ii) on day 7 (before starting the treatment) and (iii) on day 14 (24 hours after the last administration of the test article).
(§8) Thermal hyperalgesia was tested according to the Hargreaves procedure (Hargreaves et al., 1988) using the plantar test (Ugo Basile, Varese, Italy).
(§9) Briefly, animals were placed in a clear plexiglass box and allowed to acclimatise. A constant intensity radiant heat source was aimed at the midplantar area of the hind paw. The time, in seconds, from initial heat source activation until paw withdrawal was recorded.
(§10) Table 4 below details the data produced by the repeated administration of the vehicle to the sham animals or administration of vehicle or test article to animals with CCI. Test article or vehicle was administered 7 days after the chronic constriction injury was applied and was administered once a day for a further seven days.

[2] = test system: mechanical allodynia after chronic constriction injury (CCI) to the sciatic nerve; assay: Acute administration, mechanical allodynia (Dynamic Plantar Aesthesiometer) in CCI rats; type: in vivo, rat; conditions: for Withdrawal threshold: CCI rats 14 days after injury, THC 0.42 mg/kg, CBD 10 mg/kg; for mean pain relieving effect of the test article when compared to the vehicle as a percentage, Mechanical Allodynia: mean over the test period
Method: as §1, §2, §3, §4, §5
(§11) The acute administration of compounds was evaluated in rats treated with vehicle for one week and subsequently provided with the test article prior to the behavioural evaluations. The behavioural evaluations were performed at different times (between 30 min to 24 hours).
(§12) Mechanical allodynia was assessed using the Dynamic Plantar Aesthesiometer (Ugo Basile, Varese, Italy). Particularly, animals were placed in a test cage with a wire mesh floor, and the tip of von Frey-type filament was applied to the middle of the plantar surface of the hind paw. The filament exerted an increasing force starting below the threshold of detection and increasing until the animal removed its paw. Withdrawal threshold was expressed as tolerance level in g.
Table 3 below details the data produced by the acute administration of the vehicle to the sham animals or administration of vehicle or test article to animals with CCI, 14 days after the injury occurred.

[3] = test system: thermal hyperalgesia after chronic constriction injury (CCI) to the sciatic nerve; assay: Acute administration, thermal hyperalgesia (Hargreaves plantar test) in CCI rats; type: in vivo, rat; conditions: for Withdrawal latency: CCI rats 14 days after injury, THC 0.42 mg/kg, CBD 10 mg/kg; for mean pain relieving effect of the test article when compared to the vehicle as a percentage, Thermal Hyperalgesia: mean over the test period
Method: as §1, §2, §3, §4, §5, §11, §8, §9
Table 2 below details the data produced by the acute administration of the vehicle to the sham animals or administration of vehicle or test article to animals with CCI, 14 days after the injury occurred.

[4] = test system: mechanical allodynia after chronic constriction injury (CCI) to the sciatic nerve; assay: Repeated administration, mechanical allodynia (Dynamic Plantar Aesthesiometer) in CCI rats; type: in vivo, rat; conditions: for difference between the pain relieving values before and after treatment, Mechanical Allodynia: day 14 minus day 7
Method: as §1, §2, §3, §4, §5, §6, §7, §12
as §10, with “5” for “4”

[5] = test system: neuropathic pain model of chronic constriction injury of the rat sciatic nerve; conditions: purified compound; thermal and mechanical hyperalgesia and mechanical allodynia; cited from earlier work
[6] = test system: patients taking carbamezepine; conditions: cited from earlier work
[7] = day 0 (prior to CCI), baseline of the treatment group
[8] = day 7 after CCI (before drug treatment), baseline of the treatment group
[9] = day 14 after CCI (after 7 days of drug treatment, orally once a day; THC 0.42 mg/kg, CBD 10 mg/kg)
[10] = repeated administration, 7 days

SMILES | Withdrawal latency [1, 7] [s] | Withdrawal latency [1, 8] [s] | Withdrawal latency [1, 9] [s] | difference between the pain relieving values before and after treatment, Thermal Hyperalgesia ([1]; repeated administration) [s] | Withdrawal threshold ([2]; 30 min after administration) [g] | Withdrawal threshold ([2]; 60 min after administration) [g] | Withdrawal threshold ([2]; 90 min after administration) [g] | Withdrawal threshold ([2]; 120 min after administration) [g] | Withdrawal threshold ([2]; 150 min after administration) [g] | Withdrawal threshold ([2]; 180 min after administration) [g] | mean pain relieving effect of the test article when compared to the vehicle as a percentage, Mechanical Allodynia [2] [%] | pain relieving effect (in words), thermal hyperalgesia [3] | Withdrawal latency ([3]; 30 min after administration) [s] | Withdrawal latency ([3]; 60 min after administration) [s] | Withdrawal latency ([3]; 90 min after administration) [s] | Withdrawal latency ([3]; 120 min after administration) [s] | Withdrawal latency ([3]; 150 min after administration) [s] | Withdrawal latency ([3]; 180 min after administration) [s] | mean pain relieving effect of the test article when compared to the vehicle as a percentage, Thermal Hyperalgesia [3] [%] | Withdrawal threshold [4, 7] [g] | other results
CCCCCc1cc(O)c2c(c1)OC(C)(C)[C@@H]1CCC(C)=C[C@@H]21 [THC, delta-9-tetrahydrocannabinol] | 9.8 | 5.8 | 4.8 | -1.0 | 12 | 9 | 15 | 21 | 13 | 10 | 14 | increased the withdrawal latency over that of the vehicle treated animals | 11.0 | 10.2 | 9.8 | 6.0 | 5.0 | 5.3 | 47 | 31 | pain relieving effect (in words), thermal hyperalgesia [1, 10]: did not result in any pain relieving effect; peak withdrawal threshold ([2]; peak after 120 minutes): 20 g; Withdrawal threshold [4, 8]: 12 g; Withdrawal threshold [4, 9]: 10 g; pain relieving effect (in words), mechanical allodynia [4, 10]: did not result in any pain relieving effect; difference between the pain relieving values before and after treatment, Mechanical Allodynia ([4]; repeated administration): -2 g
C=C(C)[C@@H]1CCC(C)=C[C@H]1c1c(O)cc(CCCCC)cc1O [CBD, cannabidiol] | 10.4 | 5.5 | 8.7 | 3.2 | 10 | 10 | 11 | 10 | 10 | 10 | −13 | did not produce any pain relieving effects | 5.4 | 5.4 | 5.4 | 5.3 | 5.4 | 5.3 | −4 | 34 | pain relieving effect (in words), mechanical allodynia [2]: did not produce any pain relieving effects; Withdrawal threshold [4, 8]: 15 g; Withdrawal threshold [4, 9]: 19 g; difference between the pain relieving values before and after treatment, Mechanical Allodynia ([4]; repeated administration): 4 g; relief of neuropathic pain (in words) [5]: can partially relieve neuropathic pain
NC(=O)N1c2ccccc2C=Cc2ccccc21 [carbamezepine] |  |  |  |  |  |  |  |  |  |  |  |  |  |  |  |  |  |  |  |  | increase in the risk of blood dyscrasias ([6]; post-marketing studies, patients taking carbamezepine): five- to eight-fold increase; patients with a 25% decrease in their white blood cell count ([6]; usually reverses within the first 4 months of therapy): 7%

From patent publication US20120245224A1, “CANNABINOIDS FOR USE IN THE TREATMENT OF NEUROPATHIC PAIN” (GW Pharma Limited, priority 2006, published 2012)
